From patent US20100035929A1, “UNNATURAL DISPYRIN ANALOGUES, PREPARATION AND USES THEREOF” (priority 2008, published 2010) come the findings set out here.

Where two headings read alike, the source gives them in different places.

Data set [1] deals with T1, human H3 receptor (Homo sapiens, UniProt Q9Y5N1). As to the kind of experiment: H3 affinity, radioligand binding assay employing [3H](R)-α-methylhistamine. An excerpt: (§1) In one aspect, H3 affinity (Ki) and inhibition (IC50) can be determined in 5-point concentration response curves. Using data obtained from such methods, SAR can be established.
Data set [2] has as its target T1, human H3 receptor. The experiment in a line: H3 antagonist activity / inhibition (IC50). It is filed as biochemical.
From the text: as §1

Data set [3] relates to calcium and potassium ion channels, including hERG. The experiment in a line: MDS Pharma Services radioligand binding panel, initial screen at single 10 μM concentration: ion channels. To be noted: human, read-out: inhibition of a number of calcium and potassium ion channels, including hERG. Here is the method: (§2) Multiple screening avenues were pursued to identify the biological activity of dispyrin. Dispyrin was submitted to the screening deck of the Molecular Library Screening Network (MLSCN) and was evaluated against several GPCR targets (M1, M4, D1/D5, mGluR5, mGluR4) in agonist, antagonist and potentiator mode. Utilizing panels of radioligand binding assays from several companies, dispyrin was evaluated against >200 discrete molecular targets over the course of two months. The MDS Pharma Services panel identified multiple activities for dispyrin. […] Other modest activities at the 50-60% range at 10 u.M included other GPCRs and ion channels, but none with significant activity (no Kis or IC50s<10 μM).

In data set [4] the test system is other GPCRs and ion channels. The experiment in a line: MDS Pharma Services radioligand binding panel, initial screen at single 10 μM concentration: other targets. To be noted: at 10 μM; none with significant activity (no Kis or IC50s<10 μM). As to the method: as §2
Setting [5] is: 5-point concentration response curves, read-out: H3 Ki.
[6] abbreviates: 5-point concentration response curves, read-out: H3 IC50.

T1 sequence (Q9Y5N1 whole entry): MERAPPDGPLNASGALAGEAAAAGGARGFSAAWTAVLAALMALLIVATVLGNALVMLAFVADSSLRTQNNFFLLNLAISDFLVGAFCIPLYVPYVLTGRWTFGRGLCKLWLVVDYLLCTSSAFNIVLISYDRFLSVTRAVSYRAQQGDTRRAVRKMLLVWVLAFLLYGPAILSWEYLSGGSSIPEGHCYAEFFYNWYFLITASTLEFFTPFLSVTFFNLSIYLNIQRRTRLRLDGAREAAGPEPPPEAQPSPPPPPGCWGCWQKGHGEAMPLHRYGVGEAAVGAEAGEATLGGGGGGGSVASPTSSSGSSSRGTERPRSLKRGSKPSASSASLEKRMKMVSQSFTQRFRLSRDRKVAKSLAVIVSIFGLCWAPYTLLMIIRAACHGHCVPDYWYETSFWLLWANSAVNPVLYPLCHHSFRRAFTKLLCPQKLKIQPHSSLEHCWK

For the molecule `CN1CCCC(COc2ccc(CCNC(=O)c3cc(Br)c[nH]3)cc2Br)C1` (stereo not shown) [4-bromo-N-(3-bromo-4-((1-methylpiperidin-3-yl)methoxy)phenethyl)-1H-pyrrole-2-carboxamide], the inhibition constant Ki at human H3 receptor [1] (setting [5]) was 1.3 µM. Further, on human H3 receptor [2] (setting [6]), the IC50 was determined as 2.9 µM.

As for `O=C(NCc1ccc(OCCN2CCCC2)c(Cl)c1)c1cc(Br)cs1` [4-bromo-N-(3-chloro-4-(2-(pyrrolidin-1-yl)ethoxy)benzyl)thiophene-2-carboxamide], the Ki at human H3 receptor [1] (setting [5]) came out at 1.1 µM. The IC50 at human H3 receptor [2] (setting [6]) was 2.4 µM.

On to `CN(C)CCCOc1ccc(CCNC(=O)c2cccn2C)cc1Br` [N-(3-bromo-4-(3-(dimethylamino)propoxy)phenethyl)-1-methyl-1H-pyrrole-2-carboxamide], for which the Ki at human H3 receptor [1] (setting [5]) came out at 1.7 µM. Also, on human H3 receptor [2] (setting [6]), the IC50 is 3.9 µM.

For `CN(C)CCCOc1ccc(CCNC(=O)c2cc(Br)c[nH]2)cc1Br` [dispyrin, 4-bromo-N-(3-bromo-4-(3-(dimethylamino)propoxy)phenethyl)-1H-pyrrole-2-carboxamide], the inhibition at 10 µM in data set [3] lay in the range of 50 to 60%. Further, the Ki on human H3 receptor [1] (setting [5]) came to 1.1 µM; at human H3 receptor [1] (radioligand binding assay employing [3H](R)-α-methylhistamine, read-out: Ki, affinity for the human H3 receptor), 1.04 µM. Besides, the IC50 at human H3 receptor [2] (setting [6]) stood at 2.4 µM; at human H3 receptor [2] (read-out: IC50, human H3 antagonist), 2.35 µM; at human H3 receptor [2] (text of b259, read-out: IC50, human H3 antagonist), 2.35 µM. In addition, in data set [4], the “other modest activities (other GPCRs and ion channels)” value is given as 50-60%.

Take `CN1CCCC(COc2ccc(CCNC(=O)c3ccc(Br)o3)cc2Br)C1` (stereo not shown) [5-bromo-N-(3-bromo-4-((1-methylpiperidin-3-yl)methoxy)phenethyl)furan-2-carboxamide]: on human H3 receptor [1] (setting [5]), the Ki is 2.1 µM. The half-inhibitory concentration (IC50) on human H3 receptor [2] (setting [6]) stood at 4.5 µM.

Consider `O=C(NCCc1ccc(OCCN2CCCC2)c(Cl)c1)c1cc(Br)cs1` [4-bromo-N-(3-chloro-4-(2-(pyrrolidin-1-yl)ethoxy)phenethyl)thiophene-2-carboxamide], for which the Ki on human H3 receptor [1] (setting [5]) was determined as 0.16 µM. Also, the IC50 on human H3 receptor [2] (setting [6]) is 0.35 µM.

In the case of `O=C(NCCc1ccc(OCCN2CCCC2)c(Br)c1)c1cc(Br)cs1` [4-bromo-N-(3-bromo-4-(2-(pyrrolidin-1-yl)ethoxy)phenethyl)thiophene-2-carboxamide], on human H3 receptor [1] (setting [5]), the Ki worked out at 0.08 µM. Besides, the 50% inhibitory concentration (IC50) at human H3 receptor [2] (setting [6]) worked out at 0.18 µM.

With `Cn1cccc1C(=O)NCCc1ccc(OCCN2CCCC2)c(Br)c1` [N-(3-bromo-4-(2-(pyrrolidin-1-yl)ethoxy)phenethyl)-1-methyl-1H-pyrrole-2-carboxamide], the Ki on human H3 receptor [1] (setting [5]) amounted to 0.13 µM. In addition, on human H3 receptor [2] (setting [6]), the IC50 came out at 0.39 µM.

Consider `C[C@H]1CCCN1CCOc1ccc(CCNC(=O)c2cc(Br)cs2)cc1Br` [(S)-4-bromo-N-(3-bromo-4-(2-(2-methylpyrrolidin-1-yl)ethoxy)phenethyl)thiophene-2-carboxamide], for which, at human H3 receptor [1] (setting [5]), the Ki was determined as 0.33 µM. The IC50 on human H3 receptor [2] (setting [6]) stood at 0.75 µM.

`O=C(NCCc1ccc(OCCN2CCCC2)c(Br)c1)c1cc(Br)c[nH]1` [4-bromo-N-(3-bromo-4-(2-(pyrrolidin-1-yl)ethoxy)phenethyl)-1H-pyrrole-2-carboxamide]: the Ki at human H3 receptor [1] (setting [5]) was 0.19 µM. Also, the IC50 on human H3 receptor [2] (setting [6]) is 0.43 µM.

Take “N-(3-bromo-4-(2-(pyrrolidin-1- yl)ethoxy)phenethyl)thiazole-5-carboxamide”: the Ki on human H3 receptor [1] (setting [5]) was determined as 0.032 µM. Further, on human H3 receptor [2] (setting [6]), the IC50 was found to be 0.072 µM.

With `CN(C)CCCOc1ccc(CCNC(=O)c2cc(Br)cs2)cc1Br` [4-bromo-N-(3-bromo-4-(3-(dimethylamino)propoxy)phenethyl)thiophene-2-carboxamide], the Ki on human H3 receptor [1] (setting [5]) was 1.6 µM. Besides, on human H3 receptor [2] (setting [6]), the IC50 was found to be 3.6 µM.

As for `O=C(NCCc1ccc(OCCN2CC[C@H](F)C2)c(Br)c1)c1cc(Br)cs1` [(S)-4-bromo-N-(3-bromo-4-(2-(3-fiuoropyrrolidin-1-yl)ethoxy)phenethyl)thiophene-2-carboxamide], at human H3 receptor [1] (setting [5]), the Ki is 1.1 µM. The IC50 at human H3 receptor [2] (setting [6]) was determined as 2.5 µM.

In the case of `O=C(NCCc1ccc(OCCN2CCCC2)c(Br)c1)c1cccc(Br)c1` [3-bromo-N-(3-bromo-4-(2-(pyrrolidin-1-yl)ethoxy)phenethyl)benzamide], the Ki on human H3 receptor [1] (setting [5]) stood at 0.21 µM. Further, at human H3 receptor [2] (setting [6]), the 50% inhibitory concentration (IC50) came to 0.45 µM.

In the case of `O=C(NCCc1ccc(OCCN2CCCC2)c(Br)c1)c1cnco1` [N-(3-bromo-4-(2-(pyrrolidin-1-yl)ethoxy)phenethyl)oxazole-5-carboxamide], the Ki at human H3 receptor [1] (setting [5]) is 0.037 µM. Besides, the IC50 on human H3 receptor [2] (setting [6]) turned out to be 0.083 µM.

As for `CN(C)CCOc1ccc(CCNC(=O)c2cccn2C)cc1Br` [N-(3-bromo-4-(2-(dimethylamino)ethoxy)phenethyl)-1-methyl-1H-pyrrole-2-carboxamide], the Ki on human H3 receptor [1] (setting [5]) is 2.1 µM. For the same molecule, the concentration for half-maximal inhibition (IC50) at human H3 receptor [2] (setting [6]) turned out to be 4.5 µM.

For the molecule `O=C(NCCc1ccc(OCCN2CCCC2)c(Br)c1)c1ccc(Br)o1` [5-bromo-N-(3-bromo-4-(2-(pyrrolidin-1-yl)ethoxy)phenethyl)furan-2-carboxamide], the Ki at human H3 receptor [1] (setting [5]) is 0.17 µM. Besides, at human H3 receptor [2] (setting [6]), the IC50 came to 0.39 µM.

With `O=C(NCCc1ccc(OCCN2CCCC2)c(Br)c1)c1cccc(C(F)(F)F)n1` [N-(3-bromo-4-(2-(pyrrolidin-1-yl)ethoxy)phenethyl)-6-(trifluoromethyl)picolinamide], the Ki at human H3 receptor [1] (setting [5]) was found to be 0.27 µM. In addition, the IC50 at human H3 receptor [2] (setting [6]) turned out to be 0.56 µM.

Regarding `O=C(NCCc1ccc(OCCN2CCCC2)c(Br)c1)c1nccs1` [N-(3-bromo-4-(2-(pyrrolidin-1-yl)ethoxy)phenethyl)thiazole-2-carboxamide], at human H3 receptor [1] (setting [5]), the Ki turned out to be 0.116 µM. Also, the IC50 at human H3 receptor [2] (setting [6]) was 0.26 µM.

For `CN(C)CCCOc1ccc(CCNC(=O)c2ccc[nH]2)cc1Br` [N-(3-bromo-4-(3-(dimethylamino)propoxy)phenethyl)-1H-pyrrole-2-carboxamide], on human H3 receptor [1] (setting [5]), the Ki turned out to be 1.3 µM. Moreover, the IC50 at human H3 receptor [2] (setting [6]) was 2.9 µM.

For the molecule `O=C(NCCc1ccc(OCCN2CCCC2)c(Br)c1)c1ccc[nH]1` [N-(3-bromo-4-(2-(pyrrolidin-1-yl)ethoxy)phenethyl)-1H-pyrrole-2-carboxamide], on human H3 receptor [1] (setting [5]), the Ki was determined as 0.15 µM. The half-inhibitory concentration (IC50) at human H3 receptor [2] (setting [6]) was 0.38 µM.

As to `O=C(NCCc1ccc(OCCN2CC[C@@H](F)C2)c(Br)c1)c1cc(Br)cs1`, the Ki at human H3 receptor [1] (setting [5]) came out at 1.1 µM. Moreover, the IC50 on human H3 receptor [2] (setting [6]) was found to be 2.1 µM.

As for `CN1CCCC(COc2ccc(CCNC(=O)c3cccn3C)cc2Br)C1` (stereo not shown) [N-(3-bromo-4-((1-methylpiperidin-3-yl)methoxy)phenethyl)-1-methyl-1H-pyrrole-2-carboxamide], the Ki on human H3 receptor [1] (setting [5]) is 0.91 µM. Further, the IC50 at human H3 receptor [2] (setting [6]) was determined as 2.1 µM.

Consider `CN(C)CCCOc1ccc(CCNC(=O)c2ccc(Br)o2)cc1Br` [5-bromo-N-(3-bromo-4-(3-(dimethylamino)propoxy)phenethyl)furan-2-carboxamide], for which the Ki on human H3 receptor [1] (setting [5]) is 2.2 µM. Besides, the IC50 at human H3 receptor [2] (setting [6]) stood at 4.8 µM.

For the molecule `CN1CCCC(COc2ccc(CCNC(=O)c3ccc[nH]3)cc2Br)C1` (stereo not shown) [N-(3-bromo-4-((1-methylpiperidin-3-yl)methoxy)phenethyl)-1H-pyrrole-2-carboxamide], the Ki at human H3 receptor [1] (setting [5]) is 1.5 µM. Moreover, the IC50 on human H3 receptor [2] (setting [6]) worked out at 3.6 µM.

Consider `O=C(NCCc1ccc(OCCN2CCCC2)c(Br)c1)c1nnc[nH]1` [N-(3-bromo-4-(2-(pyrrolidin-1-yl)ethoxy)phenethyl)-4H-1,2,4-triazole-3-carboxamide], for which, on human H3 receptor [1] (setting [5]), the Ki amounted to 0.43 µM. Also, the IC50 at human H3 receptor [2] (setting [6]) was found to be 0.97 µM.

Turning to `CN(C)CCOc1ccc(CCNC(=O)c2ccc(Br)o2)cc1Br` [5-bromo-N-(3-bromo-4-(2-(dimethylamino)ethoxy)phenethyl)furan-2-carboxamide], the Ki at human H3 receptor [1] (setting [5]) worked out at 2.7 µM. For the same molecule, at human H3 receptor [2] (setting [6]), the IC50 is 5.9 µM.

As for `C[C@@H]1CCCN1CCOc1ccc(CCNC(=O)c2cc(Br)cs2)cc1Br` [(R)-4-bromo-N-(3-bromo-4-(2-(2-methylpyrrolidin-1-yl)ethoxy)phenethyl)thiophene-2-carboxamide], the Ki on human H3 receptor [1] (setting [5]) turned out to be 0.31 µM. In addition, on human H3 receptor [2] (setting [6]), the concentration for half-maximal inhibition (IC50) turned out to be 0.71 µM.

With `CN1CCCC(COc2ccc(CCNC(=O)c3cc(Br)cs3)cc2Br)C1` (stereo not shown) [4-bromo-N-(3-bromo-4-((1-methylpiperidin-3-yl)methoxy)phenethyl)thiophene-2-carboxamide], at human H3 receptor [1] (setting [5]), the Ki came out at 1.2 µM. Also, the IC50 on human H3 receptor [2] (setting [6]) was found to be 1.7 µM.

`CN(C)CCOc1ccc(CCNC(=O)c2ccc[nH]2)cc1Br` [N-(3-bromo-4-(2-(dimethylamino)ethoxy)phenethyl)-1H-pyrrole-2-carboxamide]: on human H3 receptor [1] (setting [5]), the Ki came out at 1.5 µM. Moreover, at human H3 receptor [2] (setting [6]), the IC50 came out at 3.4 µM.

Consider `O=C(NCCc1ccc(OCCN2CCCC2)c(Br)c1)c1cccc(C(F)(F)F)c1` [N-(3-bromo-4-(2-(pyrrolidin-1-yl)ethoxy)phenethyl)-3-(trifluoromethyl)benzamide], for which, on human H3 receptor [1] (setting [5]), the Ki turned out to be 0.44 µM. The IC50 at human H3 receptor [2] (setting [6]) was 0.98 µM.

Turning to `O=C(NCCc1ccc(OCCN2CCCC2)c(Br)c1)c1cccc(Cl)c1` [N-(3-bromo-4-(2-(pyrrolidin-1-yl)ethoxy)phenethyl)-3-chlorobenzamide], the Ki at human H3 receptor [1] (setting [5]) was determined as 0.25 µM. In addition, the concentration for half-maximal inhibition (IC50) on human H3 receptor [2] (setting [6]) amounted to 0.55 µM.

Take `CN(C)CCOc1ccc(CCNC(=O)c2cc(Br)c[nH]2)cc1Br` [4-bromo-N-(3-bromo-4-(2-(dimethylamino)ethoxy)phenethyl)-1H-pyrrole-2-carboxamide]: the Ki at human H3 receptor [1] (setting [5]) was 1.6 µM. Also, the concentration for half-maximal inhibition (IC50) at human H3 receptor [2] (setting [6]) was found to be 3.7 µM.

For `CN(C)CCOc1ccc(CCNC(=O)c2cc(Br)cs2)cc1Br` [4-bromo-N-(3-bromo-4-(2-(dimethylamino)ethoxy)phenethyl)thiophene-2-carboxamide], the Ki on human H3 receptor [1] (setting [5]) stood at 0.67 µM. Further, the 50% inhibitory concentration (IC50) at human H3 receptor [2] (setting [6]) was 1.5 µM.
